Reference: the supplement of paper PMC10307832

Legend:
Assay in all cases: relative viability (nuclei count vs DMSO), 5 days (fraction); higher = more cells survive
HCC-78 = tested on: HCC-78
How it was run: (§1)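 Relative viability equals treated-well nuclei counts divided by vehicle-well nuclei counts. Counts came from 4× images of lung cancer cell lines grown in 1536-well plates for 5 days after pin-tool dosing on the day after seeding. Dosing used one drug alone or a fixed anchor-drug dose plus five library-drug doses (not always all listed) in √10 steps, and values are medians of duplicate plates.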

NCI-H1666 = tested on: NCI-H1666
How it was run: as §1

NCI-H1915 = tested on: NCI-H1915
How it was run: as §1

NCI-H2085 = tested on: NCI-H2085
How it was run: as §1

HOP-62 = tested on: HOP-62
How it was run: as §1

ABC-1 = tested on: ABC-1
How it was run: as §1

UMC-11 = tested on: UMC-11
How it was run: as §1

COR-L 105 = tested on: COR-L 105
How it was run: as §1

EPLC-272H = tested on: EPLC-272H
How it was run: as §1

NCI-H322M = tested on: NCI-H322M
How it was run: as §1

NCI-H358 = tested on: NCI-H358
How it was run: as §1

HCC-15 = tested on: HCC-15
How it was run: as §1

NCI-H3122 = tested on: NCI-H3122
How it was run: as §1

LXF-289 = tested on: LXF-289
How it was run: as §1

CAL-12T = tested on: CAL-12T
How it was run: as §1

NCI-H1975 = tested on: NCI-H1975
How it was run: as §1

NCI-H2126 = tested on: NCI-H2126
How it was run: as §1

NCI-H2023 = tested on: NCI-H2023
How it was run: as §1

NCI-H1755 = tested on: NCI-H1755
How it was run: as §1

EMC-BAC-2 = tested on: EMC-BAC-2
How it was run: as §1

NCI-H441 = tested on: NCI-H441
How it was run: as §1

Cc1sc2c(c1C)C(c1ccc(Cl)cc1)=N[C@@H](CC(=O)OC(C)(C)C)c1nnc(C)n1-2 [JQ1] + C[C@]1(O)C[C@@H](c2nc(-c3ccc4ccc(-c5ccccc5)nc4c3)c3c(N)nccn32)C1 [Linsitinib] (partner 1 µM)
relative viability (HCC-78; first compound 0.04 µM): 0.536
relative viability (HCC-78; first compound 0.1265 µM): 0.438
relative viability (HCC-78; first compound 0.4 µM): 0.403
relative viability (HCC-78; first compound 1.265 µM): 0.255
relative viability (HCC-78; first compound 4 µM): 0.249
relative viability (NCI-H1666; first compound 0.04 µM): 0.811
relative viability (NCI-H1666; first compound 0.1265 µM): 0.844
relative viability (NCI-H1666; first compound 0.4 µM): 0.842
relative viability (NCI-H1666; first compound 1.265 µM): 0.475
relative viability (NCI-H1666; first compound 4 µM): 0.484
relative viability (NCI-H1915; first compound 0.04 µM): 1.15
relative viability (NCI-H1915; first compound 0.1265 µM): 0.966
relative viability (NCI-H1915; first compound 0.4 µM): 1.08
relative viability (NCI-H1915; first compound 1.265 µM): 0.652
relative viability (NCI-H1915; first compound 4 µM): 0.383
relative viability (NCI-H2085; first compound 0.04 µM): 0.99
relative viability (NCI-H2085; first compound 0.1265 µM): 0.652
relative viability (NCI-H2085; first compound 0.4 µM): 0.642
relative viability (NCI-H2085; first compound 1.265 µM): 0.687
relative viability (NCI-H2085; first compound 4 µM): 0.453
relative viability (HOP-62; first compound 0.04 µM): 1.01
relative viability (HOP-62; first compound 0.1265 µM): 0.869
relative viability (HOP-62; first compound 0.4 µM): 0.694
relative viability (HOP-62; first compound 1.265 µM): 0.11
relative viability (HOP-62; first compound 4 µM): 0.106
relative viability (ABC-1; first compound 0.04 µM): 0.716
relative viability (ABC-1; first compound 0.1265 µM): 0.772
relative viability (ABC-1; first compound 0.4 µM): 0.564
relative viability (ABC-1; first compound 1.265 µM): 0.356
relative viability (ABC-1; first compound 4 µM): 0.275
relative viability (UMC-11; first compound 0.04 µM): 0.866
relative viability (UMC-11; first compound 0.1265 µM): 0.793
relative viability (UMC-11; first compound 0.4 µM): 0.321
relative viability (UMC-11; first compound 1.265 µM): 0.237
relative viability (UMC-11; first compound 4 µM): 0.203
relative viability (COR-L 105; first compound 0.04 µM): 0.868
relative viability (COR-L 105; first compound 0.1265 µM): 0.579
relative viability (COR-L 105; first compound 0.4 µM): 0.349
relative viability (COR-L 105; first compound 1.265 µM): 0.299
relative viability (COR-L 105; first compound 4 µM): 0.319
relative viability (EPLC-272H; first compound 0.04 µM): 1.14
relative viability (EPLC-272H; first compound 0.1265 µM): 1.07
relative viability (EPLC-272H; first compound 0.4 µM): 1.12
relative viability (EPLC-272H; first compound 1.265 µM): 0.502
relative viability (EPLC-272H; first compound 4 µM): 0.418
relative viability (NCI-H322M; first compound 0.04 µM): 0.546
relative viability (NCI-H322M; first compound 0.1265 µM): 0.935
relative viability (NCI-H322M; first compound 0.4 µM): 0.874
relative viability (NCI-H322M; first compound 1.265 µM): 0.474
relative viability (NCI-H322M; first compound 4 µM): 0.462
relative viability (NCI-H358; first compound 0.04 µM): 0.645
relative viability (NCI-H358; first compound 0.1265 µM): 0.829
relative viability (NCI-H358; first compound 0.4 µM): 0.715
relative viability (NCI-H358; first compound 1.265 µM): 0.442
relative viability (NCI-H358; first compound 4 µM): 0.45
relative viability (HCC-15; first compound 0.04 µM): 0.732
relative viability (HCC-15; first compound 0.4 µM): 0.769
relative viability (HCC-15; first compound 1.265 µM): 0.542
relative viability (HCC-15; first compound 4 µM): 0.476
relative viability (NCI-H3122; first compound 0.04 µM): 0.966
relative viability (NCI-H3122; first compound 0.1265 µM): 0.931
relative viability (NCI-H3122; first compound 0.4 µM): 0.97
relative viability (NCI-H3122; first compound 1.265 µM): 0.757
relative viability (NCI-H3122; first compound 4 µM): 0.625
relative viability (LXF-289; first compound 0.04 µM): 0.986
relative viability (LXF-289; first compound 0.1265 µM): 0.968
relative viability (LXF-289; first compound 0.4 µM): 0.903
relative viability (LXF-289; first compound 1.265 µM): 0.761
relative viability (LXF-289; first compound 4 µM): 0.34
relative viability (CAL-12T; first compound 0.04 µM): 0.793
relative viability (CAL-12T; first compound 0.1265 µM): 0.794
relative viability (CAL-12T; first compound 0.4 µM): 0.68
relative viability (CAL-12T; first compound 1.265 µM): 0.275
relative viability (CAL-12T; first compound 4 µM): 0.232
relative viability (NCI-H1975; first compound 0.04 µM): 0.864
relative viability (NCI-H1975; first compound 0.1265 µM): 0.835
relative viability (NCI-H1975; first compound 0.4 µM): 0.723
relative viability (NCI-H1975; first compound 1.265 µM): 0.434
relative viability (NCI-H1975; first compound 4 µM): 0.379
relative viability (NCI-H2126; first compound 0.04 µM): 0.725
relative viability (NCI-H2126; first compound 0.1265 µM): 1.52
relative viability (NCI-H2126; first compound 0.4 µM): 0.651
relative viability (NCI-H2126; first compound 1.265 µM): 0.559
relative viability (NCI-H2126; first compound 4 µM): 0.432
relative viability (NCI-H2023; first compound 0.04 µM): 0.653
relative viability (NCI-H2023; first compound 0.1265 µM): 0.576
relative viability (NCI-H2023; first compound 0.4 µM): 0.379
relative viability (NCI-H2023; first compound 1.265 µM): 0.207
relative viability (NCI-H2023; first compound 4 µM): 0.157
relative viability (NCI-H1755; first compound 0.04 µM): 0.985
relative viability (NCI-H1755; first compound 0.1265 µM): 0.987
relative viability (NCI-H1755; first compound 0.4 µM): 1.01
relative viability (NCI-H1755; first compound 1.265 µM): 0.763
relative viability (NCI-H1755; first compound 4 µM): 0.709
relative viability (EMC-BAC-2; first compound 0.04 µM): 0.815
relative viability (EMC-BAC-2; first compound 0.1265 µM): 0.812
relative viability (EMC-BAC-2; first compound 0.4 µM): 0.659
relative viability (EMC-BAC-2; first compound 1.265 µM): 0.444
relative viability (EMC-BAC-2; first compound 4 µM): 0.47
relative viability (NCI-H441; first compound 0.04 µM): 0.774
relative viability (NCI-H441; first compound 0.1265 µM): 0.484
relative viability (NCI-H441; first compound 0.4 µM): 0.579
relative viability (NCI-H441; first compound 1.265 µM): 0.386
relative viability (NCI-H441; first compound 4 µM): 0.306
